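Growth conditions: 96-well plates. Treatment: test compound, 48 hours, 5 concentrations. Analysis: linear interpolation between bracketing concentrations; unreached endpoints set to highest concentration. Abbreviation: GI50, concentration required for 50% inhibition of growth.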 Active and inactive are the calls of the source. Rule as the data show it: active = GI50 up to about 1.1 µM and inactive = higher.
Key:
Assay in all cases: inhibition of tumour cell growth, NCI panel, 48 h
786-0 = tested on: 786-0
A549 = tested on: A549
CAKI-1 = tested on: CAKI-1
COLO 205 = tested on: COLO 205
DU-145 = tested on: DU-145
HOP-62 = tested on: HOP-62
Hs-578T = tested on: Hs-578T
MDA-MB-231 = tested on: MDA-MB-231
MDA-MB-435 = tested on: MDA-MB-435
MOLT-4 = tested on: MOLT-4
NCI-H23 = tested on: NCI-H23
OVCAR-8 = tested on: OVCAR-8
SK-MEL-2 = tested on: SK-MEL-2
SK-MEL-5 = tested on: SK-MEL-5
SNB-19 = tested on: SNB-19
U-251 = tested on: U-251
UACC-62 = tested on: UACC-62
UO-31 = tested on: UO-31
LOX IMVI = tested on: LOX IMVI
SW-620 = tested on: SW-620

| Structure (SMILES) | GI50 (786-0) | GI50 (A549) | GI50 (CAKI-1) | GI50 (COLO 205) | GI50 (DU-145) | GI50 (HOP-62) | GI50 (Hs-578T) | GI50 (MDA-MB-231) | GI50 (MDA-MB-435) | GI50 (MOLT-4) | GI50 (NCI-H23) | GI50 (OVCAR-8) | GI50 (SK-MEL-2) | GI50 (SK-MEL-5) | GI50 (SNB-19) | GI50 (U-251) | GI50 (UACC-62) | GI50 (UO-31) | GI50 (LOX IMVI) | GI50 (SW-620) |
| --- | --- | --- | --- | --- | --- | --- | --- | --- | --- | --- | --- | --- | --- | --- | --- | --- | --- | --- | --- | --- |
| Cc1cc(S(=O)(=O)Nc2nc3ccccc3nc2-c2cccc([N+](=O)[O-])c2)c(S)cc1Cl | 23.8 µM (inactive) | 16.1 µM (inactive) | 18.3 µM (inactive) | 16.3 µM (inactive) | 18.5 µM (inactive) | 20.2 µM (inactive) | 23.6 µM (inactive) | 58.5 µM (inactive) | 19.8 µM (inactive) | 22.6 µM (inactive) | 17.1 µM (inactive) | 34.5 µM (inactive) | 21.9 µM (inactive) | 15 µM (inactive) | 16.5 µM (inactive) | 16.9 µM (inactive) | 12.3 µM (inactive) | 22.5 µM (inactive) |  |  |
| CC(=O)OC(C)c1cc2c(s1)C(=O)c1sccc1C2=O (centres undefined) | 4.45 µM (inactive) | 1.17 µM (inactive) | 3.14 µM (inactive) | 1.89 µM (inactive) | 0.416 µM (active) | 1.03 µM (active) | 0.807 µM (active) | 1.34 µM (inactive) | 0.192 µM (active) | 2.7 µM (inactive) | 0.221 µM (active) | 1.81 µM (inactive) | 0.504 µM (active) | 0.139 µM (active) | 1.29 µM (inactive) | 0.944 µM (active) |  | 1.55 µM (inactive) | 0.446 µM (active) | 0.714 µM (active) |
| COC(=O)[C@H]1C=NN[C@@H]1C(=O)N1[C@H]2CC3CC[C@@]2(CS1(=O)=O)C3(C)C |  | > 100 µM (inactive) | > 100 µM (inactive) | > 100 µM (inactive) | > 100 µM (inactive) | > 100 µM (inactive) | > 100 µM (inactive) | > 100 µM (inactive) | > 100 µM (inactive) | > 100 µM (inactive) | > 100 µM (inactive) | > 100 µM (inactive) | > 100 µM (inactive) | > 100 µM (inactive) | > 100 µM (inactive) | > 100 µM (inactive) |  | > 100 µM (inactive) | > 100 µM (inactive) | > 100 µM (inactive) |
| O=C(CNc1cccc(Cl)c1)Nn1c(-c2ccccc2)nc2ccccc2c1=O | 2.77 µM (inactive) | 19.7 µM (inactive) |  | 3.83 µM (inactive) | 16 µM (inactive) | 14.1 µM (inactive) | 19.2 µM (inactive) | 3.37 µM (inactive) | 4.2 µM (inactive) | 1.35 µM (inactive) | 2.4 µM (inactive) | 4.34 µM (inactive) |  | 1.53 µM (inactive) | 15.7 µM (inactive) | 1.74 µM (inactive) | 1.69 µM (inactive) | 17.2 µM (inactive) | 1.21 µM (inactive) | 2.47 µM (inactive) |
| COc1cc2c(c3nc4ccccc4nc13)-c1ccc(SC)c(=O)cc1[C@@H](NC(C)=O)CC2 | 0.115 µM (active) | 0.377 µM (active) | 1.83 µM (inactive) | 0.0262 µM (active) | 0.129 µM (active) | 0.405 µM (active) | 0.0182 µM (active) | 0.0966 µM (active) | 0.0166 µM (active) | 0.0438 µM (active) | 0.0247 µM (active) | 0.0815 µM (active) |  | 0.0347 µM (active) | 0.0475 µM (active) | 0.0345 µM (active) | 0.0373 µM (active) | 6.3 µM (inactive) | 0.0542 µM (active) | 0.0752 µM (active) |
| CC(=O)OC(OC(C)=O)c1c2ccccc2cc2ccccc12 | 20.3 µM (inactive) | 19.1 µM (inactive) | 30.5 µM (inactive) | 17.8 µM (inactive) | 27.9 µM (inactive) |  | 23.2 µM (inactive) | 18 µM (inactive) | 24.6 µM (inactive) | 2.78 µM (inactive) | 25.1 µM (inactive) | 15.5 µM (inactive) |  | 11.9 µM (inactive) | 14.8 µM (inactive) | 5.98 µM (inactive) | 15.9 µM (inactive) | 19.3 µM (inactive) | 4.35 µM (inactive) | 3.18 µM (inactive) |
| O=C1CC2(CCNCC2)C(=O)N1N1CCCCC1 | > 100 µM (inactive) | > 100 µM (inactive) | > 100 µM (inactive) | > 100 µM (inactive) | > 100 µM (inactive) | > 100 µM (inactive) | > 100 µM (inactive) | > 100 µM (inactive) |  | > 100 µM (inactive) | > 100 µM (inactive) | > 100 µM (inactive) | > 100 µM (inactive) | > 100 µM (inactive) | > 100 µM (inactive) | > 100 µM (inactive) | > 100 µM (inactive) | > 100 µM (inactive) | > 100 µM (inactive) | > 100 µM (inactive) |
| CC(=O)Nc1ccccc1S(=O)(=O)c1c(-c2c(C)c(Cl)c(C)c(Cl)c2C)noc1C | 18.4 µM (inactive) | 60.1 µM (inactive) | 28.9 µM (inactive) | > 100 µM (inactive) | 88.3 µM (inactive) | 19.7 µM (inactive) | 28.6 µM (inactive) | 23.7 µM (inactive) | > 100 µM (inactive) | 24.2 µM (inactive) | 67.6 µM (inactive) | 37 µM (inactive) | > 100 µM (inactive) | > 100 µM (inactive) | 26 µM (inactive) | 31.6 µM (inactive) | 28.9 µM (inactive) | > 100 µM (inactive) |  | > 100 µM (inactive) |
| COc1ccc2c(O)c1-c1c(OC)ccc(c1O)SSc1ccc(OC)c(c1O)-c1c(OC)ccc(c1O)SS2 | 40.6 µM (inactive) | 24.5 µM (inactive) | > 100 µM (inactive) | 19.9 µM (inactive) | 29 µM (inactive) | > 100 µM (inactive) | 54.8 µM (inactive) | 44.3 µM (inactive) | > 100 µM (inactive) | > 100 µM (inactive) |  | 32.9 µM (inactive) | > 100 µM (inactive) | 30 µM (inactive) | 60.4 µM (inactive) | 19.2 µM (inactive) |  | 4.21 µM (inactive) | 26.7 µM (inactive) | 16 µM (inactive) |
| O=C(O)c1c(CC(Cc2ccc3c(c2)CCC3)C(=O)O)ccc2c1CCC2 (centres undefined) | > 100 µM (inactive) | > 100 µM (inactive) | > 100 µM (inactive) | > 100 µM (inactive) | > 100 µM (inactive) | > 100 µM (inactive) | > 100 µM (inactive) | > 100 µM (inactive) | > 100 µM (inactive) | > 100 µM (inactive) | > 100 µM (inactive) | > 100 µM (inactive) | > 100 µM (inactive) | > 100 µM (inactive) | > 100 µM (inactive) | > 100 µM (inactive) |  | > 100 µM (inactive) | > 100 µM (inactive) | > 100 µM (inactive) |
| CC(C)C(O)(C(=O)OCN1C(=O)C2C3C=CC(C2C1=O)C1C2C(=O)N(COC(=O)C(O)(C(C)C)C(C)O)C(=O)C2C31)C(C)O (centres undefined) | > 100 µM (inactive) | > 100 µM (inactive) | > 100 µM (inactive) | > 100 µM (inactive) | > 100 µM (inactive) | > 100 µM (inactive) | > 100 µM (inactive) | > 100 µM (inactive) | > 100 µM (inactive) | > 100 µM (inactive) | > 100 µM (inactive) | > 100 µM (inactive) | > 100 µM (inactive) | > 100 µM (inactive) | > 100 µM (inactive) | > 100 µM (inactive) | > 100 µM (inactive) | > 100 µM (inactive) |  | > 100 µM (inactive) |
| COc1ccc(N[S+]([O-])C2CCCCC2)cc1 (centres undefined) | > 100 µM (inactive) | > 100 µM (inactive) | > 100 µM (inactive) | > 100 µM (inactive) | > 100 µM (inactive) | 91.8 µM (inactive) | > 100 µM (inactive) | > 100 µM (inactive) | > 100 µM (inactive) | > 100 µM (inactive) | > 100 µM (inactive) | > 100 µM (inactive) |  | > 100 µM (inactive) | > 100 µM (inactive) | > 100 µM (inactive) |  | > 100 µM (inactive) | > 100 µM (inactive) | > 100 µM (inactive) |
| COP(=O)(Cc1ccccc1)Cc1ccccc1 | > 100 µM (inactive) | > 100 µM (inactive) | > 100 µM (inactive) | > 100 µM (inactive) | > 100 µM (inactive) | > 100 µM (inactive) | > 100 µM (inactive) | > 100 µM (inactive) |  | > 100 µM (inactive) | > 100 µM (inactive) | > 100 µM (inactive) | > 100 µM (inactive) | > 100 µM (inactive) | > 10 µM (inactive) | > 100 µM (inactive) | > 100 µM (inactive) | > 100 µM (inactive) | > 100 µM (inactive) | > 100 µM (inactive) |
| CC(C)(C)OC(=O)NC(Cc1ccc([N+](=O)[O-])cc1)C(=O)NC(CCCCNC(=O)OCc1ccccc1)C(=O)ON1C(=O)CCC1=O (centres undefined) | > 100 µM (inactive) | > 100 µM (inactive) | > 100 µM (inactive) | > 100 µM (inactive) | > 100 µM (inactive) | > 100 µM (inactive) | > 100 µM (inactive) | 43.8 µM (inactive) | > 100 µM (inactive) | 57.9 µM (inactive) | > 100 µM (inactive) | > 100 µM (inactive) |  | > 100 µM (inactive) | > 100 µM (inactive) | > 100 µM (inactive) | > 100 µM (inactive) | > 100 µM (inactive) | 28.8 µM (inactive) | 26.7 µM (inactive) |
| Cc1c(-c2ccc(-c3ccccc3F)cc2)nc2ccc(F)cc2c1C(=O)O [BREQUINAR SODIUM] | 0.195 µM (active) | 0.234 µM (active) | 0.904 µM (active) | 0.519 µM (active) | 0.262 µM (active) | 1.1 µM (active) | 6.93 µM (inactive) | 9.93 µM (inactive) |  | 0.0887 µM (active) | 21.5 µM (inactive) | 0.325 µM (active) | 61.8 µM (inactive) | 1.39 µM (inactive) | 1.25 µM (inactive) | 0.194 µM (active) | 0.265 µM (active) | 1.14 µM (inactive) | 0.0931 µM (active) | 0.384 µM (active) |

— ChEMBL document CHEMBL1201862, “PubChem BioAssay data set” (2004)
